Assay results: patent US20190010524A1, “BIOLOGICAL METHODS FOR PREPARING A FATTY DICARBOXYLIC ACID” (Verdezyne, Inc., priority 2012, published 2019)

Legend:
[1] = system: Candida tropicalis strain (sAA496); assay: Fermentation of coconut oil to mixed diacids at different pH; assay type: cell-based; settings: coconut oil 80 g/L, 140 hours
Experimental: Autoclaved virgin coconut oil was added to the vessel to a final concentration of 80 g/L. A partially beta-oxidation blocked Candida tropicalis strain (sAA496) was inoculated to an initial OD600nm of 1.0 with a 5% inoculum and grown under the following conditions: 30° C. with shaking at about 1200 rpm, 1 vvm, initial pH 6.5 and initial volume of 1.0 L. The effect of pH on the distribution of fatty acid chain lengths was determined by manipulating the pH of the fermentation media. The pH of the fermentation was either 1) increased to pH 7.5 and controlled at that pH for the entire run, 2) allowed to drop-naturally due to the growth of the culture before controlling at pH 6.0 for the rest of the run; or 3) allowed to drop naturally due to the growth of the culture before controlling at pH 4.5 for the rest of the run. Samples were collected for GC analysis after 140 hours of fermentation time.

strain sAA1082 = assay: Production of DDDA from ethyl laurate or methyl laurate feedstock (Example 67); assay type: cell-based, Candida
Experimental: Methyl laurate feed rates varied as follows: 0.75 g/L-h for the first 24 h; 1.2 g/L-h from 24 h to termination. Ethyl laurate was fed at a rate of 0.75 gL-h for the first 24 h; 1.28 g/L-h from 24 h to termination. […] Also at induction a co-feed of dextrose was fed at a rate of either 1.25 g/L-h or 0.9 g/L-h. In TABLE 35, data from these two ethyl laurate fermentations were compared to similar data obtained from methyl laurate fermentations run under the same conditions.

[2] = system: Candida strain ATTC 20962; assay: Shake flask bioconversion of feedstocks of varying chain length (Example 72); assay type: cell-based; settings: ethyl esters 1% v/v, alkanes 3% v/v
Experimental: (§1) The bioconversion tests in this Example were undertaken following a shake flask protocol. […] The YPD contained 10 g/L yeast extract, 20 g/L peptone, and 20 g/L dextrose. These cultures were then placed in a 30° C. shaking incubator at 250 rpm for 18 to 20 hours.
(§2) After this growth phase, these cultures were used to inoculate 350 ml of SP92-glycerol media dispensed into 10-250 ml wide mouth flasks in 35 ml aliquots for each strain. The SP92-glycerol media contained 6.7 g/L yeast nitrogen base, 3 g/L yeast extract, 3 g/L ammonium sulfate, 1 g/L potassium phosphate monobasic; 1 g/L potassium phosphate, dibasic, and 75 g/L glycerol (Picataggio S., et al., Biotechnology (NY) 1992 August; 10 (8):894-8). The cultures were then placed in a 30° C. shaking incubator at 300 rpm for 20 to 24 hours.
(§3) The cells were then centrifuged for 5 minutes at 3000 rpm and the supernatant discarded. The cells were resuspended in DCA3 medium supplemented with 1.0% triton-X100. DCA3 is a 0.3 M potassium phosphate buffer, pH 7.5 containing 6.7 g/L yeast nitrogen base and 50 g/L glycerol. Variations of DCA3 media recipes are known, non-limiting examples of which include the addition of dextrose and/or glycerol, the like or combinations thereof. DCA3 media, as referred to herein, can include dextrose and/or glycerol. After re-suspension, the OD600 nm for each culture was adjusted to a common OD (based on the available OD for the strain with the least growth) and 10 ml was transferred to pre-weighed 250 ml bottom baffled shake flasks. The flasks were then reweighed to determine the starting weight of the culture. The substrate to be converted was then added at 1% v/v for ethyl esters and 3% v/v for alkanes. The increased amount of alkanes added was due to their volatility to ensure that sufficient substrate remained in solution for bioconversion. The flasks were weighed once more to determine the exact amount of substrate added to each flask and were then placed, in a 30° C. shaking incubator at 300 rpm for 4 hours. Bioconversion tests for ethyl-stearate and ethyl palmitate were performed at 35° C. due to melting point limitations for these substrates.
(§4) After 48 hours, the flasks were weighed once more to determine the weight of the final culture. The cultures were mixed well by swirling and 1 ml was transferred to a pre-weighed 15 ml falcon tube containing 0.8 ml of 6N HCl. The tube was weighed to determine the density of the final culture and this number used to determine the culture volume present at the final time point. Samples were submitted to analytical for analysis by GC.

sAA1082 = assay: as above; assay type: cell-based, Candida; settings: for Feedstock Yield (g diacid/g added feedstock) sAA-1082: shake flask, ethyl esters 1% v/v, alkanes 3% v/v
Experimental: as §1, §2, §3, §4

sAA2178 = assay: as above; assay type: cell-based, Candida; settings: for Feedstock Yield (g diacid/g added feedstock) sAA-2178: shake flask, ethyl esters 1% v/v, alkanes 3% v/v
Experimental: as §1, §2, §3, §4

strain sAA2178 [3] = assay: Production of DDDA using sucrose or dextrose as co-feed (Example 68); assay type: cell-based, Candida; settings: co-feed 0.9 g/L-h; for production of DDDA: ethyl laurate feed, three fermentations averaged
Experimental: A pre-culture of 80 mL SP92 in a 500 mL baffled flask with foam plugs was inoculated with 1.0 mL from a frozen glycerol stock of strain sAA2178 (beta-oxidation blocked strains plus amplified CPRB, CYP52A19, ADH2a, ADH8, and HFD2) and incubated for 24 h at 30° C. and 250 RPM. […] Growth was initiated an inoculum of pre-culture to an initial OD600nm=1.0 and growth conditions of 35° C., 1000 rpm, 1 vvm, pH 5.8. Growth continued for approximately 10-12 h at which point the conversion phase was initiated by a continuous feed of ethyl laurate. […] The data from three fermentations were averaged for the comparison.

strain sAA2178 [4] = assay: Production of DDDA with glycerol or xylose substituted for dextrose as co-feed (Example 69); assay type: cell-based, Candida; settings: co-feed 1.25 g/L-h; for production of DDDA: ethyl laurate feed
Experimental: A pre-culture of 80 mL SP92 in a 500 mL baffled flask with foam plugs was inoculated with 1.0 mL from a frozen glycerol stock of strain sAA2178 (beta-oxidation blocked strains plus amplified CPRB, CYP52A19, ADH2a, ADH8, and HFD2) and incubated for 24 h at 30° C. and 250 RPM. […] Growth was initiated with an inoculum of pre-culture to an/initial OD600nm=1.0 and growth conditions of 35° C., 1000 rpm, 1 vvm; pH 5.8. Growth continued for approximately 10-12 h at which point the conversion phase was initiated by a continuous feed of ethyl laurate. Ethyl laurate was fed at a rate of 0.75 g/L-h for the first 24 h; 1.28 g/L-h from 24 h to termination. In addition, a co-feed of either dextrose, glycerol or xylose was fed at a rate of 1.25 g/L-h for all fermentations.

[5] = dextrose co-feed rate 0.9 g/L-h
[6] = dextrose co-feed rate 1.25 g/L-h

O=C(O)CCCCC(=O)O [Adipic Acid]
Diacid composition (fraction of total diacids) ([1]; pH 4.5): 0.32 | Diacid composition (fraction of total diacids) ([1]; pH 6.0): 0.12 | Diacid composition (fraction of total diacids) ([1]; pH 7.5): 0.05

O=C(O)CCCCCCCCCCC(=O)O [C12 Diacid, dodecanedioic acid]
Diacid composition (fraction of total diacids) ([1]; pH 4.5): 0.00 | Diacid composition (fraction of total diacids) ([1]; pH 6.0): 0.03 | Diacid composition (fraction of total diacids) ([1]; pH 7.5): 0.16

CCCCCCCCCCCC(=O)OCC [Ethyl Laurate]
HFA (strain sAA1082; [5]): 2.48 g/L | Lauric Acid (strain sAA1082; [5]): 2.00 g/L | Productivity (g/L-h) (strain sAA1082; [5]): 0.832 g/L-h | HFA (strain sAA1082; [6]): 1.64 g/L | Lauric Acid (strain sAA1082; [6]): 0.71 g/L | Productivity (g/L-h) (strain sAA1082; [6]): 0.879 g/L-h | improvement in productivity over the methyl laurate fermentation with similar co-feed rate (strain sAA1082; higher dextrose feed): about 6%

CCCCCCCCCCCCCCCC(=O)OCC [Ethyl palmitate]
Feedstock Yield (g diacid/g added feedstock) ATTC-20962 [2]: 0.059 g diacid/g added feedstock | % improvement over ATTC 20962 sAA-1082 (sAA1082): 41.8% | Feedstock Yield (g diacid/g added feedstock) sAA-1082 (sAA1082): 0.084 g diacid/g added feedstock | % improvement over ATTC 20962 sAA-2178 (sAA2178): 51.2% | Feedstock Yield (g diacid/g added feedstock) sAA-2178 (sAA2178): 0.090 g diacid/g added feedstock

CCCCCCCCCCCCCCCCCC(=O)OCC [Ethyl stearate]
Feedstock Yield (g diacid/g added feedstock) ATTC-20962 [2]: 0.074 g diacid/g added feedstock | % improvement over ATTC 20962 sAA-1082 (sAA1082): 14.5% | Feedstock Yield (g diacid/g added feedstock) sAA-1082 (sAA1082): 0.085 g diacid/g added feedstock | % improvement over ATTC 20962 sAA-2178 (sAA2178): 92.7% | Feedstock Yield (g diacid/g added feedstock) sAA-2178 (sAA2178): 0.143 g diacid/g added feedstock

CCCCCCCCCCCCCC(=O)OCC [Ethyl tetradecanoate]
Feedstock Yield (g diacid/g added feedstock) ATTC-20962 [2]: 0.347 g diacid/g added feedstock | % improvement over ATTC 20962 sAA-1082 (sAA1082): 16.5% | Feedstock Yield (g diacid/g added feedstock) sAA-1082 (sAA1082): 0.404 g diacid/g added feedstock | % improvement over ATTC 20962 sAA-2178 (sAA2178): 28.1% | Feedstock Yield (g diacid/g added feedstock) sAA-2178 (sAA2178): 0.444 g diacid/g added feedstock

CCCCCCCCCCCC(=O)OC [Methyl Laurate]
HFA (strain sAA1082; [5]): 3.31 g/L | Lauric Acid (strain sAA1082; [5]): 8.36 g/L | Productivity (g/L-h) (strain sAA1082; [5]): 0.638 g/L-h | HFA (strain sAA1082; [6]): 3.83 g/L | Lauric Acid (strain sAA1082; [6]): 3.88 g/L | Productivity (g/L-h) (strain sAA1082; [6]): 0.832 g/L-h

O=C(O)CCCCCCCCC(=O)O [Sebacic Acid]
Diacid composition (fraction of total diacids) ([1]; pH 4.5): 0.00 | Diacid composition (fraction of total diacids) ([1]; pH 6.0): 0.10 | Diacid composition (fraction of total diacids) ([1]; pH 7.5): 0.17

O=C(O)CCCCCCC(=O)O [Suberic Acid]
Diacid composition (fraction of total diacids) ([1]; pH 4.5): 0.68 | Diacid composition (fraction of total diacids) ([1]; pH 6.0): 0.75 | Diacid composition (fraction of total diacids) ([1]; pH 7.5): 0.62

O=C[C@H](O)[C@@H](O)[C@H](O)[C@H](O)CO [dextrose]
lauric acid accumulated (strain sAA2178 [3]): 0.52 g/L | production of DDDA (strain sAA2178 [3]): 0.872 g/L-h | HFA levels (strain sAA2178 [4]): 1.24 g/L | lauric acid accumulated (strain sAA2178 [4]): 0.37 g/L | production of DDDA (strain sAA2178 [4]): 0.825 g/L-h

OCC(O)CO [glycerol]
HFA levels (strain sAA2178 [4]): 0.33 g/L | lauric acid accumulated (strain sAA2178 [4]): 12.28 g/L | production of DDDA, less than with dextrose (strain sAA2178 [4]): about 60% | production of DDDA (strain sAA2178 [4]): 0.327 g/L-h

CCCCCCCCCCCCC [n-Tridecane]
Feedstock Yield (g diacid/g added feedstock) ATTC-20962 [2]: 0.680 g diacid/g added feedstock | % improvement over ATTC 20962 sAA-1082 (sAA1082): 38.3% | Feedstock Yield (g diacid/g added feedstock) sAA-1082 (sAA1082): 0.941 g diacid/g added feedstock | % improvement over ATTC 20962 sAA-2178 (sAA2178): 27.7% | Feedstock Yield (g diacid/g added feedstock) sAA-2178 (sAA2178): 0.868 g diacid/g added feedstock

CCCCCCCCCCC [n-Undecane]
Feedstock Yield (g diacid/g added feedstock) ATTC-20962 [2]: 0.312 g diacid/g added feedstock | % improvement over ATTC 20962 sAA-1082 (sAA1082): 23.7% | Feedstock Yield (g diacid/g added feedstock) sAA-1082 (sAA1082): 0.386 g diacid/g added feedstock | % improvement over ATTC 20962 sAA-2178 (sAA2178): 29.3% | Feedstock Yield (g diacid/g added feedstock) sAA-2178 (sAA2178): 0.403 g diacid/g added feedstock

CCCCCCCCCCCCCCCCC [n-heptadecane]
Feedstock Yield (g diacid/g added feedstock) ATTC-20962 [2]: 0.473 g diacid/g added feedstock | % improvement over ATTC 20962 sAA-1082 (sAA1082): 17.3% | Feedstock Yield (g diacid/g added feedstock) sAA-1082 (sAA1082): 0.555 g diacid/g added feedstock | % improvement over ATTC 20962 sAA-2178 (sAA2178): 8.6% | Feedstock Yield (g diacid/g added feedstock) sAA-2178 (sAA2178): 0.514 g diacid/g added feedstock

CCCCCCCCCCCCCCC [n-pentadecane]
Feedstock Yield (g diacid/g added feedstock) ATTC-20962 [2]: 0.505 g diacid/g added feedstock | % improvement over ATTC 20962 sAA-1082 (sAA1082): 33.1% | Feedstock Yield (g diacid/g added feedstock) sAA-1082 (sAA1082): 0.673 g diacid/g added feedstock | % improvement over ATTC 20962 sAA-2178 (sAA2178): 16.8% | Feedstock Yield (g diacid/g added feedstock) sAA-2178 (sAA2178): 0.590 g diacid/g added feedstock

OC[C@H]1O[C@@](CO)(O[C@H]2O[C@H](CO)[C@@H](O)[C@H](O)[C@H]2O)[C@@H](O)[C@@H]1O [sucrose]
lauric acid accumulated (strain sAA2178 [3]): 1.56 g/L | production of DDDA, less than with dextrose (strain sAA2178 [3]): about 3% | production of DDDA (strain sAA2178 [3]): 0.847 g/L-h

O=C[C@H](O)[C@@H](O)[C@H](O)CO [xylose]
HFA levels (strain sAA2178 [4]): 0.20 g/L | lauric acid accumulated (strain sAA2178 [4]): 19.04 g/L | production of DDDA, less than with dextrose (strain sAA2178 [4]): about 75% | production of DDDA (strain sAA2178 [4]): 0.211 g/L-h
